Measured values reported in the supplement of paper PMC10307832.

Columns and labels:
Experiment in all cases: relative viability (nuclei count vs DMSO), 5 days (fraction); higher = more cells survive
Bexarotene = compound: C=C(c1ccc(C(=O)O)cc1)c1cc2c(cc1C)C(C)(C)CCC2(C)C [Bexarotene]
Summary of the method: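 Five library-drug doses, separated by factors of √10, were pinned into 1536-well plates holding lung cancer cell lines after an overnight stay at 37 °C. Cells were fixed, permeabilised and Hoechst-stained in one step after 5 days without medium change, then imaged at 4×. Viability compares treated-well with vehicle-well nuclei, counted in MetaXpress, as a median across plates. Passing plates had control CV below 25% and at least one doubling.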

Bexarotene + Trametinib = compound: C=C(c1ccc(C(=O)O)cc1)c1cc2c(cc1C)C(C)(C)CCC2(C)C [Bexarotene] + CC(=O)Nc1cccc(-n2c(=O)n(C3CC3)c(=O)c3c(Nc4ccc(I)cc4F)n(C)c(=O)c(C)c32)c1 [Trametinib] (partner 0.02 µM)
Summary of the method: (§1)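 Lung cancer cell lines were seeded in 1536-well plates and dosed by pin tool the next day, with either a single drug or a fixed anchor-drug dose combined with five library-drug doses (not always all listed) spaced in √10 steps. Five days later, one step fixed the cells and stained their nuclei (final 0.05% Triton X-100, 1% formaldehyde, 1 ug/ml Hoechst), and nuclei were counted on 4× images. Relative viability is the nuclei count in treated wells divided by the count in vehicle wells, and each value is the median of duplicate plates.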

Bexarotene + OSI-027 = compound: C=C(c1ccc(C(=O)O)cc1)c1cc2c(cc1C)C(C)(C)CCC2(C)C [Bexarotene] + COc1cccc2cc(-c3nc([C@H]4CC[C@H](C(=O)O)CC4)n4ncnc(N)c34)[nH]c12 [OSI-027] (partner 0.5 µM)
Summary of the method: as §1

Bexarotene + Phenformin = compound: C=C(c1ccc(C(=O)O)cc1)c1cc2c(cc1C)C(C)(C)CCC2(C)C [Bexarotene] + N=C(N)NC(=N)NCCc1ccccc1 [Phenformin] (partner 250 µM)
Summary of the method: as §1

| Cell Line | relative viability (Bexarotene; 0.08 µM) | relative viability (Bexarotene; 0.253 µM) | relative viability (Bexarotene; 0.8 µM) | relative viability (Bexarotene; 2.53 µM) | relative viability (Bexarotene; 8 µM) | relative viability (Bexarotene + Trametinib; first compound 0.08 µM) | relative viability (Bexarotene + Trametinib; first compound 0.253 µM) | relative viability (Bexarotene + Trametinib; first compound 0.8 µM) | relative viability (Bexarotene + Trametinib; first compound 2.53 µM) | relative viability (Bexarotene + Trametinib; first compound 8 µM) | relative viability (Bexarotene + OSI-027; first compound 0.08 µM) | relative viability (Bexarotene + OSI-027; first compound 0.253 µM) | relative viability (Bexarotene + OSI-027; first compound 0.8 µM) | relative viability (Bexarotene + OSI-027; first compound 2.53 µM) | relative viability (Bexarotene + OSI-027; first compound 8 µM) | relative viability (Bexarotene + Phenformin; first compound 0.08 µM) | relative viability (Bexarotene + Phenformin; first compound 0.253 µM) | relative viability (Bexarotene + Phenformin; first compound 0.8 µM) | relative viability (Bexarotene + Phenformin; first compound 2.53 µM) | relative viability (Bexarotene + Phenformin; first compound 8 µM) |
| --- | --- | --- | --- | --- | --- | --- | --- | --- | --- | --- | --- | --- | --- | --- | --- | --- | --- | --- | --- | --- |
| RERF-LC-KJ | 0.96 | 0.969 | 0.909 | 0.87 | 0.847 | 0.879 | 0.85 | 0.814 | 0.873 | 0.799 | 0.522 | 0.572 | 0.539 | 0.562 | 0.506 | 0.407 | 0.405 | 0.402 | 0.364 | 0.426 |
| SK-LU-1 | 1.2 | 1.13 | – | 1.04 | 0.936 | 0.548 | 0.587 | – | 0.579 | 0.517 | 0.41 | 0.395 | – | 0.352 | 0.351 | 0.633 | 0.667 | – | 0.417 | 0.387 |
| SK-MES-1 | 1.16 | 1.12 | 1 | 0.98 | 0.909 | 0.701 | 0.747 | 0.656 | 0.672 | 0.65 | 0.638 | 0.708 | 0.563 | 0.603 | 0.525 | 0.751 | 0.717 | 0.67 | 0.615 | 0.558 |
| SW 900 | 0.874 | 0.948 | 0.726 | 0.684 | 0.888 | 0.635 | 0.846 | 0.85 | 0.81 | 0.647 | 0.673 | 0.739 | 0.739 | 0.55 | 0.451 | 0.643 | 0.64 | 0.598 | 0.46 | 0.572 |
| SW 1573 | 1.04 | 0.976 | 0.921 | 0.84 | 0.771 | 0.546 | 0.507 | 0.538 | 0.502 | 0.456 | 0.696 | 0.58 | 0.564 | 0.469 | 0.471 | 0.374 | 0.328 | 0.332 | 0.273 | 0.297 |
| UMC-11 | 0.976 | 0.952 | 0.917 | 0.917 | 0.963 | 0.638 | 0.668 | 0.623 | 0.634 | 0.658 | 0.468 | 0.515 | 0.419 | 0.436 | 0.432 | 0.372 | 0.327 | 0.314 | 0.301 | 0.295 |
